Measurements reported in ChEMBL document CHEMBL4602696, “LMP2 Inhibitors as a Potential Treatment for Alzheimer's Disease” (J Med Chem, 2020).
Activity calls are given as the source filed them. The rule behind the calls is not given here.

Tests used:
[1] = target: T1, Proteasome subunit beta type-9 (Homo sapiens, UniProt P28065); assay: Inhibition of LMP2 in human 20S immunoproteasome using Ac-PAL-AMC as substrate after 1 hr by fluorescence based microplate reader analysis
T1 sequence (P28065 whole entry): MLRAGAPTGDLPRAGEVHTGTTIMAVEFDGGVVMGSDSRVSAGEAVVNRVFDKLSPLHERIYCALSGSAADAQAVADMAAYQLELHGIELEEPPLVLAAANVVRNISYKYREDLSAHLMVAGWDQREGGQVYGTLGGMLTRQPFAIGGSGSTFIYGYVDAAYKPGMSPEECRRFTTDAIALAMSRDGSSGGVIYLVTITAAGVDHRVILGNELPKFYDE

[2] = Inhibition of LMP7/Beta 5 subunit chymotrypsin-like activity in human RPM18226 cell lysates using Suc-LLVY-AMC as substrate after 1 hr by fluorescence based microplate reader analysis; type: cell-free; conditions: rpmi-8226
[3] = target: T2, Proteasome subunit beta type-9 (Homo sapiens) (UniProt P28065); assay: Inhibition of immunoproteasome LMP2 subunit in human DLD1 cells over expressing ABCB1 at 3 uM using Ac-PAL-AMC as substrate incubated for 4 hrs in presence of reversin-121; type: cell-based; conditions: DLD-1
T2 sequence (whole entry): T1 sequence (P28065 whole entry)

[4] = target: T3, Proteasome Macropain subunit MB1 (Homo sapiens, UniProt P28074); assay: Inhibition of Beta5 in human 20S […] usingAc-WLA-AMC as substrate after 1 hr by fluorescence based microplate reader analysis
T3 sequence (P28074 whole entry): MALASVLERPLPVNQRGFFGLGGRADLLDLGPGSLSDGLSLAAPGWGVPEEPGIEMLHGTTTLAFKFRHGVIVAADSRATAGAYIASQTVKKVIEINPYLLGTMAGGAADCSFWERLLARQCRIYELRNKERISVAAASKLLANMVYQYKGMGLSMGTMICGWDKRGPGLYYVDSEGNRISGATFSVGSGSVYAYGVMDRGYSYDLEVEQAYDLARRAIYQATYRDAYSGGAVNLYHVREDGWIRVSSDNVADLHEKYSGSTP

[5] = target: T2, Proteasome subunit beta type-9 (Homo sapiens); assay: Inhibition of LMP2 subunit in human DLD1 cells over expressing ABCB1 at 1 uM using Ac-PAL-AMC as substrate incubated for 4 hrs; type: cell-based; conditions: DLD-1
[6] = target: T4, Proteasome subunit beta type-8 (Homo sapiens, UniProt P28062); assay: Inhibition of LMP7 in human 20S immunoproteasome using Ac-ANW-AMC as substrate after 1 hr by fluorescence based microplate reader analysis
T4 sequence (P28062 whole entry): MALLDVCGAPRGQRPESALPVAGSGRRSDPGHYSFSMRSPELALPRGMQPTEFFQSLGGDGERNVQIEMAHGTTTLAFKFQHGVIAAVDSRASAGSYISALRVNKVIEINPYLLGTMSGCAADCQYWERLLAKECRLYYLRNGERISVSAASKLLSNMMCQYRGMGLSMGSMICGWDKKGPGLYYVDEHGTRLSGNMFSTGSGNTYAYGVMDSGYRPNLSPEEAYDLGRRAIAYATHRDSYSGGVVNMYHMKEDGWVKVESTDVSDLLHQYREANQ

SMILES | IC50 [1] | IC50 [2] | IC50 [4] | inhibition [5] | IC50 [6] | inhibition [3]
CC(=O)NCC(=O)N1CCC[C@H]1C(=O)N[C@@H](Cc1ccc(-c2ccccc2)cc1)C(=O)N[C@@H](CC(C)C)C(=O)[C@@]1(C)CO1 | 21.7 nM | 5300 nM |  |  |  | 
CC(=O)NCC(=O)N1CCC[C@H]1C(=O)N[C@@H](Cc1ccc(NC(=O)CN2CCOCC2)cc1)C(=O)N[C@@H](CC(C)C)C(=O)[C@@]1(C)CO1 | 90.9 nM | > 10000 nM |  |  |  | 
Cc1ncc(C(=O)NCC(=O)N2CCC[C@H]2C(=O)N[C@@H](Cc2ccccc2)C(=O)N[C@@H](CC(C)C)C(=O)[C@@]2(C)CO2)s1 | 106 nM | > 10000 nM |  |  |  | 
CC(=O)NCC(=O)N1CCC[C@H]1C(=O)N[C@@H](CCc1ccccc1)C(=O)N[C@@H](CC(C)C)C(=O)[C@@]1(C)CO1 | 58 nM | > 10000 nM |  |  |  | 
CC(=O)NCC(=O)N1CCC[C@H]1C(=O)N[C@@H](Cc1ccc(NC(=O)c2cnccn2)cc1)C(=O)N[C@@H](CC(C)C)C(=O)[C@@]1(C)CO1 | 33.2 nM | > 10000 nM |  |  |  | 
CC(C)C[C@H](NC(=O)[C@H](Cc1ccccc1)NC(=O)[C@@H]1CCCN1C(=O)CNS(C)(=O)=O)C(=O)[C@@]1(C)CO1 | 115 nM | > 10000 nM |  |  |  | 
CC(C)C[C@H](NC(=O)[C@H](Cc1ccccc1)NC(=O)[C@@H]1CCCN1C(=O)CN1CCOCC1)C(=O)[C@@]1(C)CO1 | 1220 nM | > 10000 nM |  |  |  | 
CC(=O)NCC(=O)N1CCC[C@H]1C(=O)N[C@@H](Cc1ccccc1)C(=O)N[C@@H](CC(C)C)C(=O)[C@@]1(C)CO1 |  | > 10000 nM | > 10000 nM | inactive | > 10000 nM | Active
CC(=O)NCC(=O)N1CCC[C@H]1C(=O)N[C@@H](Cc1ccncc1)C(=O)N[C@@H](CC(C)C)C(=O)[C@@]1(C)CO1 | 122 nM | 10000 nM |  |  |  | 
CC(C)C[C@H](NC(=O)[C@H](CCc1ccccc1)NC(=O)[C@@H]1CCCN1C(=O)CNC(=O)c1cnccn1)C(=O)[C@@]1(C)CO1 | 131 nM | > 10000 nM |  | Active |  | 
Cc1ncc(C(=O)NCC(=O)N2CCC[C@H]2C(=O)N[C@@H](Cc2ccc(-c3ccccc3)cc2)C(=O)N[C@@H](CC(C)C)C(=O)[C@@]2(C)CO2)s1 | 115 nM | 10000 nM |  | Active |  | 
CC(=O)NCC(=O)N1CC(=O)C[C@H]1C(=O)N[C@@H](Cc1ccccc1)C(=O)N[C@@H](CC(C)C)C(=O)[C@@]1(C)CO1 | 622 nM | > 10000 nM |  |  |  | 
Cc1cc(C(=O)NCC(=O)N2CCC[C@H]2C(=O)N[C@@H](CCc2ccccc2)C(=O)N[C@@H](CC(C)C)C(=O)[C@@]2(C)CO2)no1 | 132 nM | 10000 nM |  |  |  | 
CC(C)C[C@H](NC(=O)[C@H](Cc1ccc2ccccc2c1)NC(=O)[C@@H]1CCCN1C(=O)CNC(=O)c1cnccn1)C(=O)[C@@]1(C)CO1 | 90.1 nM | 5760 nM |  |  |  | 
CC(=O)NCC(=O)N1CCC[C@H]1C(=O)N[C@@H](Cc1ccc(F)cc1)C(=O)N[C@@H](CC(C)C)C(=O)[C@@]1(C)CO1 | 82 nM | > 10000 nM |  |  |  | 
CC(=O)NCC(=O)N1CCC[C@H]1C(=O)N[C@@H](Cc1ccc(NC(=O)c2ccccc2)cc1)C(=O)N[C@@H](CC(C)C)C(=O)[C@@]1(C)CO1 | 72 nM | 5080 nM |  |  |  | 
CC(C)C[C@H](NC(=O)[C@H](Cc1ccccc1)NC(=O)[C@@H]1CCCN1C(=O)CNC(=O)C(F)(F)F)C(=O)[C@@]1(C)CO1 | 131 nM | > 10000 nM |  |  |  | 
CC(=O)NCC(=O)N1CCCC[C@H]1C(=O)N[C@@H](Cc1ccccc1)C(=O)N[C@@H](CC(C)C)C(=O)[C@@]1(C)CO1 | 123 nM | 1310 nM |  |  |  | 
CC(=O)NCC(=O)N1CCC[C@H]1C(=O)N[C@@H](CO)C(=O)N[C@@H](CC(C)C)C(=O)[C@@]1(C)CO1 | 120 nM | > 10000 nM |  |  |  | 
C[C@]1(C(=O)[C@H](Cc2ccccc2)NC(=O)[C@H](CO)NC(=O)c2cccc(=O)[nH]2)CO1 | 158 to 162 nM | > 10000 nM | > 10000 nM | inactive | > 10000 nM | Active
CC(=O)NCC(=O)N1CCC[C@@]1(C)C(=O)N[C@@H](Cc1ccccc1)C(=O)N[C@@H](CC(C)C)C(=O)[C@@]1(C)CO1 | 152 nM | > 10000 nM |  |  |  | 
CCc1ccc(C[C@H](NC(=O)[C@@H]2CCCN2C(=O)CNC(C)=O)C(=O)N[C@@H](CC(C)C)C(=O)[C@@]2(C)CO2)cc1 | 134 nM | > 10000 nM |  |  |  | 
CCCC[C@H](NC(=O)[C@@H]1CCCN1C(=O)CNC(C)=O)C(=O)N[C@@H](CC(C)C)C(=O)[C@@]1(C)CO1 | 120 nM | > 10000 nM |  |  |  | 
CC(C)C[C@H](NC(=O)[C@H](Cc1ccc(-c2ccccc2)cc1)NC(=O)[C@@H]1CCCN1C(=O)CNC(=O)c1cnccn1)C(=O)[C@@]1(C)CO1 | 62.8 nM | 10000 nM |  |  |  | 

Further lines, with some results ahead:

IC50 [1] | IC50 [2] | IC50 [4] | inhibition [5] | IC50 [6] | SMILES | inhibition [3]
342 nM | > 10000 nM |  |  |  | CC(=O)NCC(=O)N1CCC[C@H]1C(=O)N[C@@H](Cc1ccccc1)C(=O)N[C@@H](Cc1ccccc1)C(=O)[C@@]1(C)CO1 | 
121 nM | > 10000 nM |  |  |  | CC(=O)NCC(=O)N1CCC[C@H]1C(=O)N[C@@H](Cc1ccc(C(C)(C)C)cc1)C(=O)N[C@@H](CC(C)C)C(=O)[C@@]1(C)CO1 | 
143 nM | > 10000 nM |  |  |  | CC(C)C[C@H](NC(=O)[C@H](Cc1ccccc1)NC(=O)[C@@H]1CCCN1C(=O)CNC(=O)c1cccc(O)n1)C(=O)[C@@]1(C)CO1 | 
1010 nM | > 10000 nM |  |  |  | CC(C)C[C@H](NC(=O)[C@H](Cc1ccccc1)NC(=O)[C@@H]1CCCN1C(=O)c1cccc(O)n1)C(=O)[C@@]1(C)CO1 | 
 |  | > 10000 nM |  | > 10000 nM | CC(=O)NCC(=O)N1CCC[C@H]1C(=O)N[C@@H](Cc1ccccc1)C(=O)N[C@@H](CC(C)C)C(=O)[C@]1(C)CO1 | 
151 nM | > 10000 nM |  |  |  | CC(=O)NCC(=O)N1C[C@H](F)C[C@H]1C(=O)N[C@@H](Cc1ccccc1)C(=O)N[C@@H](CC(C)C)C(=O)[C@@]1(C)CO1 | 
103 nM | > 10000 nM |  |  |  | Cc1ncc(C(=O)NCC(=O)N2CCC[C@H]2C(=O)N[C@@H](CCc2ccccc2)C(=O)N[C@@H](CC(C)C)C(=O)[C@@]2(C)CO2)s1 | 
201 nM | > 10000 nM |  |  |  | CC(=O)NCC(=O)N1CCC[C@H]1C(=O)N[C@@H](Cc1ccccc1)C(=O)N[C@@H](CC1CCCCC1)C(=O)[C@@]1(C)CO1 | 
111 nM | > 10000 nM |  |  |  | COc1cnc(C(=O)NCC(=O)N2CCC[C@H]2C(=O)N[C@@H](Cc2ccccc2)C(=O)N[C@@H](CC(C)C)C(=O)[C@@]2(C)CO2)cn1 | 
29.7 nM | > 10000 nM |  |  |  | CC(=O)NCC(=O)N1CCC[C@H]1C(=O)N[C@@H](Cc1cccc2ccccc12)C(=O)N[C@@H](CC(C)C)C(=O)[C@@]1(C)CO1 | 
33.5 nM | > 10000 nM |  |  |  | CC(=O)NCC(=O)N1CCC[C@H]1C(=O)N[C@@H](Cc1ccc2ccccc2c1)C(=O)N[C@@H](CC(C)C)C(=O)[C@@]1(C)CO1 | 
183 nM | > 10000 nM |  |  |  | Cc1ncc(C(=O)NCC(=O)N2CCC[C@H]2C(=O)N[C@@H](Cc2ccc3ccccc3c2)C(=O)N[C@@H](CC(C)C)C(=O)[C@@]2(C)CO2)s1 | 
100 nM | > 10000 nM |  |  |  | CC(=O)NCC(=O)N1CC[C@H]1C(=O)N[C@@H](Cc1ccccc1)C(=O)N[C@@H](CC(C)C)C(=O)[C@@]1(C)CO1 | 
1040 nM | > 10000 nM |  |  |  | CC(C)C[C@H](NC(=O)[C@H](Cc1ccccc1)NC(=O)[C@@H]1CCCN1C(=O)CN1CCOCC1=O)C(=O)[C@@]1(C)CO1 | 
71.8 nM | > 10000 nM |  |  |  | CC(=O)NCC(=O)N1CC(F)(F)C[C@H]1C(=O)N[C@@H](Cc1ccccc1)C(=O)N[C@@H](CC(C)C)C(=O)[C@@]1(C)CO1 | 
